In patent EP0745595A1, “3-(3-Aryloxyphenyl)-1-(substituted methyl)-s-triazine-2,4,6-oxo or thiotrione herbicidal agents” (American Cyanamid Company, priority 1995, dated 1996):

Experiments:
Type in all cases: in vivo
[1] = test system: CASSIA OBTUSIFOLIA, L.; assay: Postemergence herbicidal evaluation, CASOB (Sicklepod); design: key to CASOB rating / Herbicidal effect rating, CASOB / CASOB: 0-9 visual rating scale vs untreated control
Procedure, shortened: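 Seedlings about two weeks old were sprayed with compound in 50/50 acetone/water containing 0.5% Tween 20 at about 0.125-0.500 kg/ha and kept in the greenhouse. Visual injury was rated on a 0-9 scale versus control 4-5 weeks after treatment; repeat tests were averaged.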

[2] = test system: CHENOPODIUM ALBUM, L.; assay: Postemergence herbicidal evaluation, CHEAL (Lambsquarters, Common)
Procedure, shortened: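 Seedlings of common lambsquarters (Chenopodium album) were raised in jiffy flats for roughly two weeks, then sprayed postemergence through a nozzle at 40 psi with test compound dispersed in 50/50 acetone/water containing 0.5% TWEEN®20 surfactant. Plants were kept on greenhouse benches under standard care and rated visually on a 0-9 scale versus controls.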

[3] = test system: IPOMOEA SPP.; assay: Postemergence herbicidal evaluation, IPOSS (Morningglory spp.)
Procedure, shortened: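 Seedlings of morningglory (Ipomoea spp.) were raised in jiffy flats for roughly two weeks. They were then sprayed postemergence through a nozzle at 40 psi with test compound dispersed in 50/50 acetone/water containing 0.5% TWEEN®20 surfactant. Plants were kept on greenhouse benches under standard care and visually rated 0-9 against controls four to five weeks after treatment.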

[4] = test system: SETARIA VIRIDIS, (L) BEAU; assay: Postemergence herbicidal evaluation, SETVI (Foxtail, Green); design: key to SETVI rating / Herbicidal effect rating, SETVI / SETVI: 0-9 visual rating scale vs untreated control
Procedure, shortened: (§1)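 Two-week-old seedlings sprayed with compound in 50/50 acetone/water plus 0.5% TWEEN 20 at about 0.125–0.500 kg/ha via nozzle at 40 psi. Kept in greenhouse; rated visually 4–5 weeks after treatment on a 0–9 scale versus untreated control, averaging repeat tests.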

[5] = test system: AMBROSIA ARTEMISIIFOLIA, L.; assay: Preemergence herbicidal evaluation, AMBEL (Ragweed, Common); conditions: rated four to five weeks after treatment
Text: (§2) Results of herbicide evaluation are expressed on a rating scale (0-9). The scale is based upon a visual observation of plant stand, vigor, malformation, size, chlorosis and overall plant appearance as compared with a control.
(§3) The preemergence herbicidal activity of the test compounds of the present invention is exemplified by the following tests in which the seeds of a variety of monocotyledonous and dicotyledonous plants are separately mixed with potting soil and planted on top of approximately one inch of soil in separate pint cups. […] The treated cups are then placed on greenhouse benches, watered and cared for in accordance with conventional greenhouse procedures. From four to five weeks after treatment, the tests are terminated and each cup is examined and rated according to the rating system provided in Example 40.
(§4) The compounds evaluated are reported by compound number given in Example 40.

[6] = test system: CASSIA OBTUSIFOLIA, L.; assay: Preemergence herbicidal evaluation, CASOB (Sicklepod); conditions: Rate 0.500 kg/ha, rated four to five weeks after treatment
Procedure, shortened: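 Seeds of various monocot and dicot plants, including sicklepod, were each mixed with potting soil and sown on roughly one inch of soil in separate pint cups for preemergence testing. Treated cups were kept on greenhouse benches, watered and maintained conventionally. Four to five weeks after treatment, each cup was visually rated on a 0-9 scale against a control.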

[7] = test system: CHENOPODIUM ALBUM, L.; assay: Preemergence herbicidal evaluation, CHEAL (Lambsquarters, Common); conditions: rated four to five weeks after treatment
Procedure, shortened: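 First, seeds in potting soil are sown atop soil in cups. Next, the surface is sprayed with test compound in aqueous acetone at roughly 0.125 to 0.50 kg per hectare. After four to five weeks of greenhouse care, each cup is scored 0-9 against a control.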

[8] = test system: GLYCINE MAX(L) MERR. CV. WILLIAMS; assay: Preemergence herbicidal evaluation, GLXMAW (Soybean, Williams); conditions: rated four to five weeks after treatment
Text: as §2, §3, §4

[9] = test system: ORYZA SATIVA, L. TEBONNET; assay: Preemergence herbicidal evaluation, ORYSAT (Rice, Tebonnet); conditions: rated four to five weeks after treatment
Text: as §2, §3, §4

[10] = test system: TRITICUM AESTIVUM, CV. APOLLO; assay: Preemergence herbicidal evaluation, TRZAWO (Wheat, Winter, CV. APOLLO); conditions: rated four to five weeks after treatment
Text: as §2, §3, §4

[11] = test system: ZEA MAYS L.; assay: Preemergence herbicidal evaluation, ZEAMX (Corn, Field); conditions: rated four to five weeks after treatment
Procedure, shortened: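 Corn (Zea mays) seeds were mixed with potting soil and planted on about one inch of soil in pint cups, then treated preemergence. Cups were kept on greenhouse benches, watered and maintained conventionally, and after four to five weeks were visually rated on a 0-9 scale versus an untreated control.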

[12] = test system: ORYZA SATIVA, L. TEBONNET; assay: Rice tolerance to post-transplant applications under flooded paddy conditions, ORYSAT (Rice, Tebonnet); conditions: post-transplant rice, 3-4 weeks after treatment
Procedure, shortened: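 Post-transplant paddy test: compound applied 3 d after transplanting to flooded soil (1.5-3 cm water), ~0.063-0.5 kg/ha a.i., 50/50 aq/acetone. Silt loam, 2 × 10-d seedlings/pot. Greenhouse 3-4 wk, visual 0-9 score vs control.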

[13] = test system: ABUTILON THEOPHRASTI, MEDIC.; assay: Postemergence herbicidal evaluation, ABUTH (Velvetleaf)
Procedure, shortened: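 Velvetleaf (Abutilon theophrasti) seedlings were raised in jiffy flats for about two weeks and then sprayed postemergence. The test compound was dispersed in a 50/50 acetone/water mixture containing 0.5% TWEEN®20 and applied through a nozzle operating at 40 psi. Plants were kept on greenhouse benches and rated 0-9 four to five weeks after treatment.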

[14] = test system: AMBROSIA ARTEMISIIFOLIA, L.; assay: Postemergence herbicidal evaluation, AMBEL (Ragweed, Common)
Procedure, shortened: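 Common ragweed (Ambrosia artemisiifolia) seedlings were raised in jiffy flats for roughly two weeks, then sprayed postemergence through a nozzle at 40 psi with the test compound dispersed in 50/50 acetone/water carrying 0.5% TWEEN®20. The plants were kept on greenhouse benches under conventional care. Four to five weeks later, injury was rated visually on a 0-9 scale, and repeat tests were averaged.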

[15] = test system: GALIUM APARINE; assay: Postemergence herbicidal evaluation, GALAP (Galium); design: key to GALAP rating / Herbicidal effect rating, GALAP / GALAP: 0-9 visual rating scale vs untreated control
Procedure, shortened: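 Galium (GALAP) seedlings were raised in jiffy flats for about two weeks, then sprayed with test compounds dispersed in 50/50 acetone/water containing 0.5% TWEEN®20, delivered through a nozzle at 40 psi. Plants were kept on greenhouse benches and visually rated 0-9 against a control four to five weeks later; repeat tests were averaged.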

[16] = test system: ECHINOCHLOA CRUS-GALLI, (L) BEAU; assay: Postemergence herbicidal evaluation, ECHCG (Barnyardgrass); design: key to ECHCG rating / Herbicidal effect rating, ECHCG / ECHCG: 0-9 visual rating scale vs untreated control
Procedure, shortened: as §1

[17] = test system: ECHINOCHLOA ORYZOIDES (ARD.)FRITSCH; assay: Preemergence weed control under flooded paddy conditions, ECHORC (Watergrass (Calif.)); conditions: 0.500 kg/ha, preemergence, 3-4 weeks after treatment
Procedure, shortened: (§5)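 Flooded paddy preemergence test: seeds/propagating organs in top 0.5 cm silt loam, water held 1.5-3 cm above soil. Dosing by pipette into flood water, aqueous/acetone 50/50 v/v, ~0.5, 0.25, 0.125, 0.063 kg/ha a.i. Greenhouse; read at 3-4 wk, 0-9 visual scale.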

[18] = test system: CYPERUS IRIA; assay: Preemergence weed control under flooded paddy conditions, CYPIR (Rice Flatsedge); conditions: 0.500 kg/ha, preemergence, 3-4 weeks after treatment
Procedure, shortened: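 Seeds or propagating organs of rice flatsedge were planted in the top 0.5 cm of silt loam soil in 32 oz. plastic containers, 10.5 cm across and without drainage holes. Water was kept 1.5 to 3 cm above the soil throughout. Treated containers were kept on greenhouse benches, and herbicidal effect was visually rated on a 0-9 scale against a control.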

[19] = test system: CYPERUS SEROTINUS, ROTTB.; assay: Preemergence weed control under flooded paddy conditions, CYPSE (Flatsedge); conditions: 0.500 kg/ha, preemergence, 3-4 weeks after treatment
Procedure, shortened: as §5

[20] = test system: […], PRESL.; assay: Preemergence weed control under flooded paddy conditions, MOOVA (Monochoria); conditions: 0.500 kg/ha, preemergence, 3-4 weeks after treatment
Procedure, shortened: as §5

[21] = test system: SAGITTARIA PYGMAEA, L.; assay: Preemergence weed control under flooded paddy conditions, SAGPY (Arrowhead (Pygmaea)); conditions: 0.500 kg/ha, preemergence, 3-4 weeks after treatment
Procedure, shortened: as §5

## CC(C)OC(=O)Cn1c(=O)n(C)c(=O)n(-c2cc(Oc3ncc(C(F)(F)F)cc3Cl)ccc2Br)c1=O [Compound 44]
[1]; Rate 0.125 kg/ha
  CASOB rating: 9.0
[1]; Rate 0.250 kg/ha
  CASOB rating: 9.0
[1]; Rate 0.500 kg/ha
  CASOB rating: 9.0
[2]; Rate 0.125 kg/ha
  CHEAL rating: 9.0
[2]; Rate 0.250 kg/ha
  CHEAL rating: 9.0
[2]; Rate 0.500 kg/ha
  CHEAL rating: 9.0
[3]; Rate 0.125 kg/ha
  IPOSS rating: 9.0
[3]; Rate 0.250 kg/ha
  IPOSS rating: 9.0
[3]; Rate 0.500 kg/ha
  IPOSS rating: 9.0
[4]; Rate 0.125 kg/ha
  SETVI rating: 9.0
[4]; Rate 0.250 kg/ha
  SETVI rating: 9.0
[4]; Rate 0.500 kg/ha
  SETVI rating: 9.0
[5]; Rate 0.125 kg/ha
  AMBEL herbicidal rating: 0.0
[5]; Rate 0.250 kg/ha
  AMBEL herbicidal rating: 0.0
[5]; Rate 0.500 kg/ha
  AMBEL herbicidal rating: 0.0
[6]
  CASOB herbicidal rating: 0.0
[7]; Rate 0.125 kg/ha
  CHEAL herbicidal rating: 9.0
[7]; Rate 0.250 kg/ha
  CHEAL herbicidal rating: 9.0
[7]; Rate 0.500 kg/ha
  CHEAL herbicidal rating: 9.0
[8]; Rate 0.125 kg/ha
  GLXMAW herbicidal rating: 0.0
[8]; Rate 0.250 kg/ha
  GLXMAW herbicidal rating: 0.0
[8]; Rate 0.500 kg/ha
  GLXMAW herbicidal rating: 0.0
[9]; Rate 0.125 kg/ha
  ORYSAT herbicidal rating: 0.0
[9]; Rate 0.250 kg/ha
  ORYSAT herbicidal rating: 0.0
[9]; Rate 0.500 kg/ha
  ORYSAT herbicidal rating: 0.0
[10]; Rate 0.125 kg/ha
  TRZAWO herbicidal rating: 0.0
[10]; Rate 0.250 kg/ha
  TRZAWO herbicidal rating: 0.0
[10]; Rate 0.500 kg/ha
  TRZAWO herbicidal rating: 0.0
[11]; Rate 0.125 kg/ha
  ZEAMX herbicidal rating: 0.0
[11]; Rate 0.250 kg/ha
  ZEAMX herbicidal rating: 0.0
[11]; Rate 0.500 kg/ha
  ZEAMX herbicidal rating: 0.0
[12]; 0.063 kg/ha
  Herbicidal effect rating, ORYSAT: 1.0
[12]; 0.125 kg/ha
  Herbicidal effect rating, ORYSAT: 1.0
[12]; 0.250 kg/ha
  Herbicidal effect rating, ORYSAT: 2.0
[12]; 0.500 kg/ha
  Herbicidal effect rating, ORYSAT: 3.0

## COC(=O)Cn1c(=O)n(C)c(=O)n(-c2cc(Oc3ccc(C#N)cc3)ccc2[N+](=O)[O-])c1=O [Compound 32, Methyl 3-[5-(p-cyanophenoxy)-2-nitrophenyl]-tetrahydro-5-methyl-2,4,6-trioxo-s-triazine-1(2H)-acetate]
[13]; Rate 0.125 kg/ha
  ABUTH rating: 0.0
[13]; Rate 0.250 kg/ha
  ABUTH rating: 0.0
[13]; Rate 0.500 kg/ha
  ABUTH rating: 0.0
[14]; Rate 0.125 kg/ha
  AMBEL rating: 0.0
[14]; Rate 0.250 kg/ha
  AMBEL rating: 0.0
[14]; Rate 0.500 kg/ha
  AMBEL rating: 0.0
[1]; Rate 0.125 kg/ha
  CASOB rating: 0.0
[1]; Rate 0.250 kg/ha
  CASOB rating: 0.0
[1]; Rate 0.500 kg/ha
  CASOB rating: 0.0
[3]; Rate 0.125 kg/ha
  IPOSS rating: 0.0
[3]; Rate 0.250 kg/ha
  IPOSS rating: 0.0
[3]; Rate 0.500 kg/ha
  IPOSS rating: 0.0
[15]; Rate 0.125 kg/ha
  GALAP rating: 0.0
[15]; Rate 0.250 kg/ha
  GALAP rating: 0.0
[15]; Rate 0.500 kg/ha
  GALAP rating: 0.0
[16]; Rate 0.125 kg/ha
  ECHCG rating: 0.0
[16]; Rate 0.250 kg/ha
  ECHCG rating: 0.0
[16]; Rate 0.500 kg/ha
  ECHCG rating: 0.0
[4]; Rate 0.125 kg/ha
  SETVI rating: 0.0
[4]; Rate 0.250 kg/ha
  SETVI rating: 0.0
[4]; Rate 0.500 kg/ha
  SETVI rating: 0.0
[8]; Rate 0.125 kg/ha
  GLXMAW herbicidal rating: 0.0
[8]; Rate 0.250 kg/ha
  GLXMAW herbicidal rating: 0.0
[8]; Rate 0.500 kg/ha
  GLXMAW herbicidal rating: 0.0
[9]; Rate 0.125 kg/ha
  ORYSAT herbicidal rating: 2.0
[9]; Rate 0.250 kg/ha
  ORYSAT herbicidal rating: 2.0
[9]; Rate 0.500 kg/ha
  ORYSAT herbicidal rating: 2.0
[11]; Rate 0.125 kg/ha
  ZEAMX herbicidal rating: 0.0
[11]; Rate 0.250 kg/ha
  ZEAMX herbicidal rating: 0.0
[11]; Rate 0.500 kg/ha
  ZEAMX herbicidal rating: 0.0
[17]
  Herbicidal effect rating, ECHORC: 0.0
[18]
  Herbicidal effect rating, CYPIR: 0.0
[19]
  Herbicidal effect rating, CYPSE: 0.0
[20]
  Herbicidal effect rating, MOOVA: 0.0
[21]
  Herbicidal effect rating, SAGPY: 0.0
[12]; 0.500 kg/ha
  Herbicidal effect rating, ORYSAT: 0.0
